Measurements as given in patent US11110158B2, “Prostate-associated antigens and vaccine-based immunotherapy regimens” (Pfizer Inc., priority 2012, dated 2021).
“And” between values parts separate entries of the source, which are not always exact repeats. Equal values may be shown once.

Columns and labels:
[1] = tested on: hPSMA full-length protein; experiment: IFN-γ ELISPOT, hPSMA modified versus full-length DNA vaccine in C57BL/6 mice; type: in vivo, human; details: Example 7, FIG. 26; C57BL/6, PMED days 0, 14, 28; day 35
Description: The immune responses induced by DNA vaccination using a construct encoding an immunogenic PSMA polypeptide (the “human PSMA modified antigen” or “hPSMA modified”) consisting 15-750 amino acids (aa) of the native human PSMA protein of SEQ ID NO: 1 were compared with those induced by the native human full-length PSMA protein (hPSMA full length). Groups of female C57BL/6 mice or female Pasteur (HLA-A2/DR1) transgenic mice were primed on day 0 and boosted on days 14, 28 by PMED administration with a 2 μg dose of a DNA vaccine encoding either hPSMA full-length or hPSMA modified protein. Mice were bled and sacrificed on day 35 (7 days after the third vaccination) and T cell immune responses against the hPSMA full-length protein were determined in splenocytes by IFN-γ ELISPOT assay. For C57BL/6 mice, single cell suspensions of 5×10^5 splenocytes from individual animals were plated per well with […] purified hPSMA protein, 5×10^4 TRAMP-C2 cells alone, or TRAMP-C2 cells expressing hPSMA or a PSMA-PSA-PSCA fusion protein. […] Responses in Pasteur mice were also determined using 10 μg/ml purified PSMA protein or 5×10^4 SK-Mel5 cells that had been transduced with Adenoviral vectors expressing a control protein (Ad-eGFP) or the full-length human PSMA protein (Ad-hPSMA). […] The number of IFN-γ SFC was counted by a CTL reader. […]

rhesus PSMA = experiment: IFNγ ELISPOT of PBMCs, PSMA vaccine with or without anti-CTLA-4 in Indian rhesus macaques, rhesus PSMA recall antigens; type: in vivo; details: Group 2, vaccine + CpG 3 mg intradermal + aCTLA4 10 mg/kg intravenous (IV), normalized to 1e6 PBMCs, one cell per animal
Description: Three groups of male Indian rhesus macaques, five to six (#1 to 5 or 6) per each test group, were immunized with a nucleic acid (SEQ ID NO: 10) that encodes a human PSMA modified antigen (SEQ ID NO: 9) delivered by adenovirus (1e11 V.P. injected intramuscularly) followed by 2 DNA immunizations (8 actuations/immunization, 4 actuations per each right and left side of the lower abdomen) by PMED with 6 and 9 week intervals respectively. Animals in Groups 2 and 3 additionally received bilateral intradermal injections of 3 mg of CpG (PF-03512676) subsequently after the PMED immunization in proximity to each inguinal draining lymph node. Group 2 also received intravenous injections of anti-CTLA-4 monoclonal antibody (CP-675, 206) at 10 mg/kg and group 3 received intradermal injections of anti-CTLA-4 monoclonal antibody (CP-675, 206) at 5 mg/kg in proximity to each left and right inguinal vaccine draining lymph node at the time of the second PMED immunization.
Peripheral blood samples were collected from each animal sixteen days after the last PMED immunization. Peripheral blood mononuclear cells (PBMCs) were isolated from the samples and were subjected to an IFNγ ELISPOT assay to measure the PSMA specific T cell responses. […] The number of IFNγ spot forming cells (SFC) were counted by CTL reader. […]

Substance: PSMA modified: membrane-bound polypeptide of amino acids 15-750 of human PSMA, SEQ ID NO: 9; tested as DNA construct
- IFN-γ T cell responses to TRAMP C2-PSMA or purified hPSMA protein [1]: equivalent T cell immune responses

Substance: Tremelimumab: fully human IgG2 anti-CTLA-4 monoclonal antibody, CAS 745013-59-6, SEQ ID NOs:42 and 43
- PSMA specific IFNγ SFC, recall antigen R1 (rhesus PSMA): 6.3 SFC and 0.0 SFC and 22.5 SFC and 26.3 SFC and 97.5 SFC
- PSMA specific IFNγ SFC, recall antigen rPSMA protein (rhesus PSMA): 0.0 SFC and 3.8 SFC and 1.3 SFC and 2.5 SFC and 20.0 SFC
